Test results from patent US20200131473A1, “METHOD OF GENERATING 2 CELL-LIKE STEM CELLS” (IFOM FONDAZIONE ISTITUTO FIRC DI ONCOLOGIA MOLECOLARE, priority 2017, published 2020).

Experiments:
[1] = test system: Nanog, Pou5f1 (Oct4), Sox2; experiment: Immunostaining and qPCR for canonical pluripotency markers in ESCs; type: cell-based, mouse; settings: upon APH treatment
Experimental: RNA was extracted using RNeasy mini kit (QIAGEN), quantified by NanoDrop spectrophotometer and cDNA was prepared from 2 μg total DNA-depleted RNA using SuperScript™ III reverse transcriptase kit (Invitrogen cat #18080-093) following manufacturer's instructions. qPCR assay performed based on standard protocol using […] SsoFast™ EvaGreen® Supermix or later 1× LightCycler 480 SYBR Green I Master (Roche, 04707516001), 0.5 μM primer mix and 5 ng of cDNA. GAPDH was used as internal control to normalise the qPCR data following ΔΔCt method, 10 μM primer mix and a total amount of cDNA corresponding to 5 ng of starting RNA for each reaction. […] Then, cells were incubated with primary antibody at 4° C. overnight, followed by washes and incubation with secondary antibody for an hour at room temperature. Next samples were mounted and images were acquired with wide field florescent microscope. Antibodies used in this study were Anti Oct-3/4 (Santa Cruz sc-5279), Anti Nanog (Abcam ab80892) and Plet-1 antibody (Nordic MUbio MUB1512P) and), Anti-GFP (Abcam, ab5450). Acquired figures were analyzed with ImageJ software.

[2] = test system: ATR Seckel and WT ESCs; experiment: In-vitro differentiation toward giant trophoblast-like cells; type: cell-based, mouse
Experimental: (§1) RNA was extracted using RNeasy mini kit (QIAGEN), quantified by NanoDrop spectrophotometer and cDNA was prepared from 2 μg total DNA-depleted RNA using SuperScript™ III reverse transcriptase kit (Invitrogen cat #18080-093) following manufacturer's instructions. qPCR assay performed based on standard protocol using 10× SsoFast™ EvaGreen® Supermix or later 1× LightCycler 480 SYBR Green I Master (Roche, 04707516001), 0.5 μM primer mix and 5 ng of cDNA. GAPDH was used as internal control to normalise the qPCR data following ΔΔCt method, 10 μM primer mix and a total amount of cDNA corresponding to 5 ng of starting RNA for each reaction.
Then, cells were incubated with primary antibody at 4° C. overnight, followed by washes and incubation with secondary antibody for an hour at room temperature. Next samples were mounted and images were acquired with wide field florescent microscope. Antibodies used in this study were Anti Oct-3/4 (Santa Cruz sc-5279), Anti Nanog (Abcam ab80892) and Plet-1 antibody (Nordic MUbio MUB1512P) and), Anti-GFP (Abcam, ab5450). Acquired figures were analyzed with ImageJ software. […]

[3] = test system: pZscan4-Emerald ESCs; experiment: Cell cycle analysis of ESCs; type: cell-based, mouse; settings: APH 0.3 μM and 6 μM
Description: ESCs were fixed and permeabilized using Cytoperm/Cytofix kit (BD Biosciences), and subsequently stained for one hour at room temperature with Alexa Fluor® 647 anti-H2AX-Phosphorylated (Ser139) antibody (Biolegend) or P-CHK1-PE conjugated antibody (cell signaling 12268). Cells were washed and acquired on a FACS Calibur instrument or Attune NxT (Thermo Fisher Scientific). For Emerald-GFP acquisition, cells were trypsinized, collected and subsequently acquired without fixation. Cell cycle profiles were acquired after incubation with DAPI (4′,6-diamidino-2-phenylindole) overnight. For Caspase3 FACS analysis after fixation and permeabilization, Cleaved Caspase3 antibody were used for one hr at RT followed by washes and one hr incubation in donkey anti rabbit secondary antibody. […]

[4] = test system: morula stage mouse embryos; experiment: qPCR for 2C-embryo specific genes in APH-treated morula-stage mouse embryos; type: cell-based
Experimental: as §1
Cryopreserved C57BL/6N morulae purchased from Janvier Labs (QUICKBLASTO®), were thawed according to the manufacturer's protocol. After recovery, a group of healthy morulae were treated with APH at final concentration of 1.5 μM in KSOM culture medium for 4 hrs while the rest were kept as control. The day after, the same number of morphologically healthy and synchronized blastocysts (22 and 7 blastocysts in the 1st and 2nd round, respectively) were selected from both groups. […] As the quantity of isolated RNA is not detectable by NanoDrop spectrophotometer, the supernatant was directly used for cDNA preparation following centrifugation at 10621 g for 2 minutes. cDNA preparation and qPCR were performed following the aforementioned protocols. […]

C[C@@]1(CO)[C@H](O)CC[C@@]2(C)[C@H]1CC[C@H]1C[C@@H]3C[C@@]12CC[C@]3(O)CO [APH, aphidicolin]
Nanog, Pou5f1 (Oct4) protein in Zscan4 positive cells (immunostaining) [1]: mild downregulation
expression of pluripotency related genes at the transcriptional level ([1]; Sox2, Nanog, Pou5f1, Rex1): no significant alterations
number of giant trophoblast-like cells ([2]; APH treatment): more than three folds
giant trophoblast cell specific marker Prl2c2 (qPCR) in ATR activated condition ([2]; wild type ESC treated with APH): highest expression
G2/M population in culture [3]: neither at low (0.3 μM) nor at high (6 μM) concentrations could increase G2/M population
expression of 2C embryo specific markers Dux, MERVL and Gm4981 (qPCR) ([4]; morula-stage embryos treated with APH, blastocyst stage): activated the expression of several key 2C embryo specific markers
expression of 2C-embryo-specific genes Zscan4, Tcstv3, GM12794 and Eif1a (qPCR) ([4]; morula-stage embryos, APH 1.5 μM for 4 hrs, blastocysts analysed the day after): activate several key 2C-embryo-specific genes
